From patent publication US12690589B2, “Herbicidal compositions comprising pyroxasulfone” (BASF SE, priority 2024, dated 2026)

Legend:
Test in all cases: Post-emergence application in field trials, herbicidal activity (damage scale 0 to 100%)
Format in all cases: in vivo
[1] = system: Lolium multiflorum (LOLMU)
Method: (§1) In the examples below, using the method of S. R. Colby (1967) “Calculating synergistic and antagonistic responses of herbicide combinations”, Weeds 15, p. 22ff., the value E, which is expected if the activity of the individual active compounds is only additive, was calculated:
(§2) [formula] • wherein • X=percent activity using active herbicide A at an application rate a; • Y=percent activity using active herbicide B (e.g. pyroxasulfone) at an application rate b; • E=expected activity (in %) by A+B at application rates a+b.
(§3) For 3-component mixtures the synergistic response was calculated as described in: Ferry, Nancy; Stanley, Bruce H.; and Armel, Gregory (2005). “DESIGN AND ANALYSIS OF BIOLOGICAL ASSAYS OF MIXTURES,” Conference on Applied Statistics in Agriculture. https://doi.org/10.4148/2475-7772.1133. According to this publication, the Colby calculation can be generalized to a third mixing partner, Z, employing the following formula: […]
(§4) If the value found experimentally is higher than the value E calculated according to Colby, a synergistic effect is present.
(§5) On field test sites, natural weed infestation or seeded weeds were treated post-emergence of the weeds.
(§6) In the field trials, the weeds were treated as indicated below.
(§7) In the following experiments, the herbicidal activity for the individual herbicidal compositions (solo and mixture applications) was assessed at the indicated days after treatment (DAT). The assessments for the damage on undesired weeds caused by the composition was carried out using a scale from 0 to 100%, compared to the untreated control plants. Here, 0 means no damage and 100 means complete destruction of the plants.
(§8) Herbicide A-1 (342 g/l) and pyroxasulfone (500 g/l) were, together with addition of 0.25 v/v % MSO (methylated seed oil) as adjuvant, formulated in 200 l/ha water as distribution medium and sprayed with commercial flat fan nozzles.
(§9) Herbicide A-1 (342 g/l), pyroxasulfone (500 g/l) and trifludimoxazin (500 g/l) were, together with addition of 0.25 v/v % MSO (methylated seed oil) as adjuvant, formulated in 200 l/ha water as distribution medium and sprayed with commercial flat fan nozzles.
(§10) Herbicide A-1 (342 g/I), pyroxasulfone (500 g/l) and glyphosate-isopropylammonium (356 g/l) were, together with addition of 0.25 v/v % MSO (methylated seed oil) as adjuvant, formulated in 200 l/ha water as distribution medium and sprayed with commercial flat fan nozzles.
(§11) Herbicide A-1 (342 g/l), pyroxasulfone (500 g/l) and glufosinate-P-ammonium (211 g/l) were, together with addition of 0.25 v/v % MSO (methylated seed oil) as adjuvant, formulated in 200 l/ha water as distribution medium and sprayed with commercial flat fan nozzles.
(§12) Herbicide A-1 (342 g/l), pyroxasulfone (500 g/l) and 2,4-D-choline (456 g/l) were, together with addition of 0.25 v/v % MSO (methylated seed oil) as adjuvant, formulated in 200 l/ha water as distribution medium and sprayed with commercial flat fan nozzles.

[2] = system: Setaria verticillata (SETVE)
Method: as §1, §2, §3, §4, §5, §6, §7, §8, §9, §10, §11, §12

Hordeum vulgare (HORVW) = system: Hordeum vulgare (HORVW)
Method: as §1, §2, §3, §4, §5, §6, §7, §8, §9, §10, §11, §12

## Cn1nc(C(F)(F)F)c(CS(=O)(=O)C2=NOC(C)(C)C2)c1OC(F)F [B, pyroxasulfone]
[1]; 7 DAT, stage 22-25, height 20-25 cm, g ai/ha A-1 12.5, B 70, C-12 252
  % Herbicidal activity: 10%
[1]; 7 DAT, stage 22-25, height 20-25 cm, g ai/ha A-1 18, B 70, C-12 252
  % Herbicidal activity: 10%
[1]; 7 DAT, stage 22-25, height 20-25 cm, g ai/ha A-1 18, B 90, C-12 252
  % Herbicidal activity: 10%
[1]; 21 DAT, stage 22-25, height 20-25 cm, g ai/ha A-1 12.5, B 70, C-12 252
  % Herbicidal activity: 10%
[1]; 21 DAT, stage 22-25, height 20-25 cm, g ai/ha A-1 18, B 70, C-12 252
  % Herbicidal activity: 10%
[1]; 21 DAT, stage 22-25, height 20-25 cm, g ai/ha A-1 18, B 90, C-12 252
  % Herbicidal activity: 10%
[1]; 28 DAT, stage 22-25, height 20-25 cm, g ai/ha A-1 12.5, B 70, C-12 252
  % Herbicidal activity: 10%
[1]; 28 DAT, stage 22-25, height 20-25 cm, g ai/ha A-1 18, B 70, C-12 252
  % Herbicidal activity: 10%
[1]; 28 DAT, stage 22-25, height 20-25 cm, g ai/ha A-1 18, B 90, C-12 252
  % Herbicidal activity: 10%
[1]; LOLMU, growth stage 22-25, height 20-25 cm, B 70 g ai/ha, 21 DAT, Table 4.4
  % Herbicidal activity: 20%
[1]; LOLMU, growth stage 22-25, height 20-25 cm, B 90 g ai/ha, 7 DAT, Table 4.2
  % Herbicidal activity: 10%
[1]; LOLMU, growth stage 22-25, height 20-25 cm, B 90 g ai/ha, 21 DAT, Table 4.4
  % Herbicidal activity: 10%
[2]; 7 DAT, stage 21-23, height 8-16 cm, g ai/ha A-1 18, B 70, C-8 840
  % Herbicidal activity: 0%
[2]; 7 DAT, stage 21-23, height 8-16 cm, g ai/ha A-1 18, B 70, C-12 252
  % Herbicidal activity: 0%
[2]; 7 DAT, stage 21-23, height 8-16 cm, g ai/ha A-1 18, B 90, C-4 12.5
  % Herbicidal activity: 0%
[2]; 7 DAT, stage 21-23, height 8-16 cm, g ai/ha A-1 18, B 90, C-8 840
  % Herbicidal activity: 0%
[2]; 7 DAT, stage 21-23, height 8-16 cm, g ai/ha A-1 18, B 90, C-12 252
  % Herbicidal activity: 0%
[2]; 21 DAT, stage 21-23, height 8-16 cm, g ai/ha A-1 18, B 90, C-12 252
  % Herbicidal activity: 0%
[2]; 42 DAT, stage 21-23, height 8-16 cm, g ai/ha A-1 12.5, B 70
  % Herbicidal activity: 0%
[2]; 42 DAT, stage 21-23, height 8-16 cm, g ai/ha A-1 12.5, B 70, C-12 252
  % Herbicidal activity: 0%
[2]; 42 DAT, stage 21-23, height 8-16 cm, g ai/ha A-1 18, B 70
  % Herbicidal activity: 0%
[2]; 42 DAT, stage 21-23, height 8-16 cm, g ai/ha A-1 18, B 90, C-12 252
  % Herbicidal activity: 0%
[2]; SETVE, growth stage 21-23, height 8-16 cm, B 70 g ai/ha, 7 DAT, Table 4.1
  % Herbicidal activity: 0%
[2]; SETVE, growth stage 21-23, height 8-16 cm, B 70 g ai/ha, 21 DAT, Table 4.3
  % Herbicidal activity: 0%
[2]; SETVE, growth stage 21-23, height 8-16 cm, B 90 g ai/ha, 7 DAT, Table 4.1
  % Herbicidal activity: 0%
[2]; SETVE, growth stage 21-23, height 8-16 cm, B 90 g ai/ha, 21 DAT, Table 4.3
  % Herbicidal activity: 0%
[2]; Table 8.1, 7 DAT, stage 21-23, height 8-16 cm, g ai/ha A-1 18, B 70, C-12 1066
  % Herbicidal activity: 0%
[2]; Table 8.2, 21 DAT, stage 21-23, height 8-16 cm, g ai/ha A-1 12.5, B 70, C-12 1066
  % Herbicidal activity: 0%
[2]; Table 8.4, 42 DAT, stage 21-23, height 8-16 cm, g ai/ha A-1 12.5, B 70, C-12 1066
  % Herbicidal activity: 0%
Hordeum vulgare (HORVW); 7 DAT, stage 23-29, height 20-25 cm, g ai/ha A-1 12.5, B 70, C-12 252
  % Herbicidal activity: 0%
Hordeum vulgare (HORVW); 7 DAT, stage 23-29, height 20-25 cm, g ai/ha A-1 18, B 70, C-12 252
  % Herbicidal activity: 0%
Hordeum vulgare (HORVW); 7 DAT, stage 23-29, height 20-25 cm, g ai/ha A-1 18, B 90, C-12 252
  % Herbicidal activity: 0%
Hordeum vulgare (HORVW); 21 DAT, stage 23-29, height 20-25 cm, g ai/ha A-1 12.5, B 70, C-12 252
  % Herbicidal activity: 0%
Hordeum vulgare (HORVW); 21 DAT, stage 23-29, height 20-25 cm, g ai/ha A-1 18, B 70, C-12 252
  % Herbicidal activity: 0%
Hordeum vulgare (HORVW); 21 DAT, stage 23-29, height 20-25 cm, g ai/ha A-1 18, B 90, C-12 252
  % Herbicidal activity: 0%
Hordeum vulgare (HORVW); 28 DAT, stage 23-29, height 20-25 cm, g ai/ha A-1 12.5, B 70, C-12 252
  % Herbicidal activity: 0%
Hordeum vulgare (HORVW); 28 DAT, stage 23-29, height 20-25 cm, g ai/ha A-1 18, B 70, C-12 252
  % Herbicidal activity: 0%
Hordeum vulgare (HORVW); 28 DAT, stage 23-29, height 20-25 cm, g ai/ha A-1 18, B 90, C-12 252
  % Herbicidal activity: 0%
Hordeum vulgare (HORVW); HORVW, growth stage 23-29, height 20-25 cm, B 70 g ai/ha, 7 DAT, Table 4.2
  % Herbicidal activity: 0%
